Measurements from US11053204B2, “Pyrimidinyloxy benzene derivatives as herbicides” (FMC Corporation, priority 2015, dated 2021).

Experiments:
Type in all cases: in vivo
[1] = system: Italian ryegrass (Lolium multiflorum); test: Test A preemergence, visual injury rating
In short: (§1)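 Visual 0–100 rating (100 = complete control) taken about 10 d post-treatment relative to untreated checks. Preemergence: directed soil spray on sown loam/sand pots. Postemergence: seedlings 2–10 cm, 1–2 leaf. Non-phytotoxic solvent formulation with surfactant.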

[2] = system: ragweed (common ragweed, Ambrosia elatior); test: Test A preemergence, visual injury rating
In short: as §1

[3] = system: giant foxtail (Setaria faberii); test: Test A preemergence, visual injury rating
In short: as §1

[4] = system: pigweed (Amaranthus retroflexus); test: Test A preemergence, visual injury rating
In short: as §1

[5] = system: barnyardgrass (Echinochloa crus-galli); test: Test A preemergence, visual injury rating
In short: as §1

kochia (Kochia scoparia) [6] = test: Test A preemergence, visual injury rating
In short: as §1

rice (Oryza sativa) = test: Test B flooded paddy test, plant response rating; conditions: 250 g ai/ha; Flood; scale of 0 to 100 where 0 is no effect and 100 is complete control; 13 to 15 days
In short: (§2)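 Under a constant 3 cm flood, test compounds went directly into the paddy water. Following 13 to 15 days of greenhouse growth, treated species and controls were compared by eye.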

[7] = system: sedge, umbrella (small-flower umbrella sedge, Cyperus difformis); test: Test B flooded paddy test, plant response rating; conditions: 250 g ai/ha; Flood; scale of 0 to 100 where 0 is no effect and 100 is complete control; 13 to 15 days
In short: as §2

[8] = system: ducksalad (Heteranthera limosa); test: Test B flooded paddy test, plant response rating; conditions: 250 g ai/ha; Flood; scale of 0 to 100 where 0 is no effect and 100 is complete control; 13 to 15 days
In short: as §2

[9] = system: barnyardgrass (Echinochloa crus-galli); test: Test B flooded paddy test, plant response rating; conditions: 250 g ai/ha; Flood; scale of 0 to 100 where 0 is no effect and 100 is complete control; 13 to 15 days
In short: as §2

[10] = system: wheat (Triticum aestivum); test: Test A postemergence, visual injury rating
In short: as §1

corn (Zea mays) = test: Test A postemergence, visual injury rating
In short: as §1

[11] = system: Italian ryegrass (Lolium multiflorum); test: Test A postemergence, visual injury rating
In short: as §1

[12] = system: ragweed (common ragweed, Ambrosia elatior); test: Test A postemergence, visual injury rating
In short: as §1

[13] = system: galium (catchweed bedstraw, Galium aparine); test: Test A postemergence, visual injury rating
In short: as §1

[14] = system: giant foxtail (Setaria faberii); test: Test A postemergence, visual injury rating
In short: as §1

[15] = system: pigweed (Amaranthus retroflexus); test: Test A postemergence, visual injury rating
In short: as §1

[16] = system: barnyardgrass (Echinochloa crus-galli); test: Test A postemergence, visual injury rating; conditions: 0 to 100 scale, 0 is no effect, 100 is complete control, approximately 10 days
In short: as §1

[17] = system: blackgrass (Alopecurus myosuroides); test: Test A postemergence, visual injury rating
In short: as §1

kochia (Kochia scoparia) [18] = test: Test A postemergence, visual injury rating
In short: as §1

[19] = 31 g ai/ha, 0 to 100 scale, 0 no effect, 100 complete control
[20] = 125 g ai/ha, 0 to 100 scale (0 no effect, 100 complete control)
[21] = 31 g ai/ha, 0 to 100 scale, 0 is no effect, 100 is complete control, approximately 10 days
[22] = 125 g ai/ha, 0 to 100 scale, 0 is no effect, 100 is complete control, approximately 10 days
[23] = 31 g ai/ha, 0 to 100 scale (0 no effect, 100 complete control)

| SMILES | Plant response rating, Ryegrass, Italian [1, 19] | Plant response rating, Ryegrass, Italian [1, 20] | Plant response rating, Ragweed [2, 19] | Plant response rating, Ragweed [2, 20] | Plant response rating, Foxtail, Giant [3, 19] | Plant response rating, Foxtail, Giant [3, 20] | Plant response rating, Pigweed [4, 19] | Plant response rating, Pigweed [4, 20] | Plant response rating, Barnyardgrass [5, 19] | Plant response rating, Barnyardgrass [5, 20] | Plant response rating, Kochia (kochia (Kochia scoparia) [6]; [19]) | Plant response rating, Kochia (kochia (Kochia scoparia) [6]; [20]) | Plant response rating, Rice (rice (Oryza sativa)) | Plant response rating, Sedge, Umbrella [7] | Plant response rating, Ducksalad [8] | Plant response rating, Barnyardgrass [9] | Wheat plant response rating [10, 22] | Corn plant response rating (corn (Zea mays); [22]) | Ryegrass, Italian plant response rating [11, 22] | Ragweed plant response rating [12, 22] | further results |
| --- | --- | --- | --- | --- | --- | --- | --- | --- | --- | --- | --- | --- | --- | --- | --- | --- | --- | --- | --- | --- | --- |
| FC(F)(F)CCCCCc1c(Cl)cccc1Oc1ncc(Cl)cn1 [Compound 124] | 0 | 20 | 0 | 0 | 60 | 100 | 40 | 100 | 10 | 80 | 0 | 10 | 40 | 100 | 100 | 45 | 10 | 20 | 20 | 20 | Wheat plant response rating [10, 21]: 10; Corn plant response rating (corn (Zea mays); [21]): 10; Ryegrass, Italian plant response rating [11, 21]: 0; Ragweed plant response rating [12, 21]: 10; Galium plant response rating [13, 21]: 70; Galium plant response rating [13, 22]: 90; Foxtail, Giant plant response rating [14, 21]: 30; Foxtail, Giant plant response rating [14, 22]: 70; Pigweed plant response rating [15, 21]: 70; Pigweed plant response rating [15, 22]: 100; Barnyardgrass plant response rating ([16]; 31 g ai/ha): 10; Barnyardgrass plant response rating ([16]; 125 g ai/ha): 60; Blackgrass plant response rating [17, 21]: 20; Blackgrass plant response rating [17, 22]: 60; Kochia plant response rating (kochia (Kochia scoparia) [18]; [21]): 50; Kochia plant response rating (kochia (Kochia scoparia) [18]; [22]): 80 |
| CN(CCCC(F)(F)F)c1c(C#N)cccc1Oc1ncc(Cl)cn1 [Compound 126] | 0 | 0 | 0 | 0 | 0 | 0 | 0 | 0 | 0 | 0 | 0 | 0 | 0 | 0 | 0 | 90 | 0 | 0 | 0 | 0 | Wheat plant response rating [10, 21]: 0; Corn plant response rating (corn (Zea mays); [21]): 0; Ryegrass, Italian plant response rating [11, 21]: 0; Ragweed plant response rating [12, 21]: 0; Galium plant response rating [13, 21]: 0; Galium plant response rating [13, 22]: 0; Foxtail, Giant plant response rating [14, 21]: 0; Foxtail, Giant plant response rating [14, 22]: 0; Pigweed plant response rating [15, 21]: 0; Pigweed plant response rating [15, 22]: 10; Barnyardgrass plant response rating ([16]; 31 g ai/ha): 0; Barnyardgrass plant response rating ([16]; 125 g ai/ha): 0; Blackgrass plant response rating [17, 21]: 0; Blackgrass plant response rating [17, 22]: 0; Kochia plant response rating (kochia (Kochia scoparia) [18]; [21]): 0; Kochia plant response rating (kochia (Kochia scoparia) [18]; [22]): 0 |
| CCCCC(C#N)c1ccccc1Oc1ncc(Cl)cn1 (stereo not drawn) [Compound 129] | 20 | 60 | 0 | 0 | 100 | 100 | 90 | 100 | 70 | 100 | 30 | 100 | 40 | 80 | 90 | 45 | 10 | 20 | 60 | 0 | Wheat plant response rating [10, 23]: 0; Corn plant response rating (corn (Zea mays); [23]): 20; Ryegrass, Italian plant response rating [11, 23]: 0; Ragweed plant response rating [12, 23]: 0; Galium plant response rating [13, 23]: 30; Galium plant response rating [13, 22]: 90; Foxtail, Giant plant response rating [14, 23]: 20; Foxtail, Giant plant response rating [14, 22]: 100; Pigweed plant response rating [15, 23]: 20; Pigweed plant response rating [15, 22]: 70; Barnyardgrass plant response rating ([16]; 31 g ai/ha): 20; Barnyardgrass plant response rating ([16]; 125 g ai/ha): 100; Blackgrass plant response rating [17, 23]: 20; Blackgrass plant response rating [17, 22]: 80; Kochia plant response rating (kochia (Kochia scoparia) [18]; [23]): 40; Kochia plant response rating (kochia (Kochia scoparia) [18]; [22]): 100 |
| N#Cc1cccc(Oc2ncc(Cl)cn2)c1COCC(F)(F)F [Compound 131] | 0 | 20 | 0 | 0 | 0 | 90 | 90 | 100 | 0 | 100 | 10 | 100 | 15 | 90 | 80 | 15 | 20 | 30 | 20 | 0 | Wheat plant response rating [10, 23]: 0; Corn plant response rating (corn (Zea mays); [23]): 20; Ryegrass, Italian plant response rating [11, 23]: 0; Ragweed plant response rating [12, 23]: 0; Galium plant response rating [13, 23]: 20; Galium plant response rating [13, 22]: 50; Foxtail, Giant plant response rating [14, 23]: 0; Foxtail, Giant plant response rating [14, 22]: 20; Pigweed plant response rating [15, 23]: 50; Pigweed plant response rating [15, 22]: 80; Barnyardgrass plant response rating ([16]; 31 g ai/ha): 0; Barnyardgrass plant response rating ([16]; 125 g ai/ha): 10; Blackgrass plant response rating [17, 23]: 0; Blackgrass plant response rating [17, 22]: 0; Kochia plant response rating (kochia (Kochia scoparia) [18]; [23]): 40; Kochia plant response rating (kochia (Kochia scoparia) [18]; [22]): 90 |
